Measurements as given in ChEMBL document CHEMBL5154941, “Structural Modifications of Nimodipine Lead to Novel PDE1 Inhibitors with Anti-pulmonary Fibrosis Effects” (J Med Chem, 2022).
Active and inactive are the calls of the source. The rule behind the calls is not given here.

Tests used:
Rattus norvegicus [1] = test: Antifibrotic activity in bleomycin-induced Sprague-Dawley rat pulmonary fibrosis model assessed as increase in respiratory rate at 2.5 to 5 mg/kg, ip administered daily for 28 days; type: functional, organism-based; conditions: dose 2.5-5 mg/kg, time 28.0 day
Rattus norvegicus [2] = test: Antifibrotic activity in bleomycin-induced Sprague-Dawley rat lung fibrosis model assessed as decrease in collagen I level at 2.5 to 5 mg/kg, ip administered daily for 28 days by Western blot analysis; type: functional, organism-based; conditions: dose 2.5-5 mg/kg, time 28.0 day
Rattus norvegicus [3] = test: Antifibrotic activity in bleomycin-induced Sprague-Dawley rat lung fibrosis model assessed as increase in cAMP level at 2.5 to 5 mg/kg, ip administered daily for 28 days by ELISA analysis; type: functional, organism-based; conditions: dose 2.5-5 mg/kg, time 28.0 day
HLF [4] = test: Antifibrotic activity in TGF-beta induced HLF cell assessed as suppression of alpha-SMA level at 10 uM incubated for 48 hrs by Western blot analysis; type: functional, cell-based; conditions: Homo sapiens
HLF [5] = test: Antifibrotic activity in TGF-beta induced HLF cell assessed as suppression of Col-I level at 10 uM incubated for 48 hrs by Western blot analysis; type: functional, cell-based; conditions: Homo sapiens
HLF [6] = test: Antifibrotic activity in TGF-beta induced HLF cell assessed as suppression of Col-I level incubated for 48 hrs by Western blot analysis; type: functional, cell-based; conditions: Homo sapiens, DDE = dose-dependent effect
Rattus norvegicus [7] = test: Antifibrotic activity in bleomycin-induced Sprague-Dawley rat lung fibrosis model assessed as increase in cGMP level at 2.5 to 5 mg/kg, ip administered daily for 28 days by ELISA analysis; type: functional, organism-based; conditions: dose 2.5-5 mg/kg, time 28.0 day
[8] = biological target: High affinity cAMP-specific and IBMX-insensitive 3',5'-cyclic phosphodiesterase 8A (Homo sapiens, UniProt O60658); test: Inhibition of PDE8A1 (480 to 820 residues) (unknown origin) expressed in Escherichia coli BL21 using [3H]-cAMP as substrate measured for 15 mins by liquid scintillation counter method
High affinity cAMP-specific and IBMX-insensitive 3',5'-cyclic phosphodiesterase 8A, sequence (O60658 whole entry, the tested form may be a part): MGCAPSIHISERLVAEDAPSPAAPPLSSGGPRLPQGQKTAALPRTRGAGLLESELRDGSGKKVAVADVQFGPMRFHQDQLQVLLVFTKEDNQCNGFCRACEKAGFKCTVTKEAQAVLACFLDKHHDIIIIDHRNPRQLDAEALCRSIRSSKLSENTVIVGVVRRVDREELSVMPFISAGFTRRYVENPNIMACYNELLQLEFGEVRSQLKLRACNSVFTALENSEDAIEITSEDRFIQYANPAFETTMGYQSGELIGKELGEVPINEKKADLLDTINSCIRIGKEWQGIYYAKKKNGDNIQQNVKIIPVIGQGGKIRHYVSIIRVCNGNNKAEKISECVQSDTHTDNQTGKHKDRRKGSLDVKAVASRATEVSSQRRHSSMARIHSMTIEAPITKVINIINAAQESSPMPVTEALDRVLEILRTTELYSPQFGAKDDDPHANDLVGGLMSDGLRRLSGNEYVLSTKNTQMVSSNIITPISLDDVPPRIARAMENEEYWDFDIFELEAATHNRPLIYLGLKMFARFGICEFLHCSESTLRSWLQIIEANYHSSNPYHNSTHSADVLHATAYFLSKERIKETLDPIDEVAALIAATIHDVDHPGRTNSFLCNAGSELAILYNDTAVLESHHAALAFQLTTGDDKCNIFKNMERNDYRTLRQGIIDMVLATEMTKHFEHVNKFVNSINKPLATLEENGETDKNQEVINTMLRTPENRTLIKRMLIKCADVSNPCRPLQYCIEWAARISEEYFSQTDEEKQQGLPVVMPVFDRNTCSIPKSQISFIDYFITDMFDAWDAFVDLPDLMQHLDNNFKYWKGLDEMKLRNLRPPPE

Rattus norvegicus [9] = test: Antifibrotic activity in bleomycin-induced Sprague-Dawley rat lung fibrosis model assessed as decrease in collagen deposition at 2.5 to 5 mg/kg, ip administered daily for 28 days by Masson's trichrome staining based analysis; type: functional, organism-based; conditions: dose 2.5-5 mg/kg, time 28.0 day
[10] = biological target: 3',5'-cyclic-AMP phosphodiesterase 4D (Homo sapiens, UniProt Q08499); test: Inhibition of PDE4D2 (86 to 413 residues) (unknown origin) expressed in Escherichia coli BL21 [3H]-cAMP as substrate measured for 15 mins by liquid scintillation counter method
[11] = biological target: Dual specificity calcium/calmodulin-dependent 3',5'-cyclic nucleotide phosphodiesterase 1A (Homo sapiens, UniProt P54750); test: Inhibition of PDE1A (142 to 552 residues) (unknown origin) expressed in Escherichia coli BL21 measured for 15 mins by liquid scintillation counter method
Dual specificity calcium/calmodulin-dependent 3',5'-cyclic nucleotide phosphodiesterase 1A, sequence (P54750 whole entry, the tested form may be a part): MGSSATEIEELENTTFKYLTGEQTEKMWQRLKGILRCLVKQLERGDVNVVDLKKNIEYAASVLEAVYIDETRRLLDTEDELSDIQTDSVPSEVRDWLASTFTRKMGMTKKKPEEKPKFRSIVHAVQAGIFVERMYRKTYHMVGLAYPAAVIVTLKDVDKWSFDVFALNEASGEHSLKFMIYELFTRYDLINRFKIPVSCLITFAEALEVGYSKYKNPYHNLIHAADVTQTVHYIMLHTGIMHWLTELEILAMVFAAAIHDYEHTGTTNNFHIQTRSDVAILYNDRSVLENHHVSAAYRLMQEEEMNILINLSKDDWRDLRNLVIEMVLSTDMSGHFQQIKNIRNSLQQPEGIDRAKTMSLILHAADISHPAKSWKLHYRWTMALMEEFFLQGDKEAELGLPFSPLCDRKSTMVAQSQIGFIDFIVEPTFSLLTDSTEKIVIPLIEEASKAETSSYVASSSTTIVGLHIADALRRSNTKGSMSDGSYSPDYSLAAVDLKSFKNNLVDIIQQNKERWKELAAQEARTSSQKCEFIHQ

[12] = AUC (0 to t) in Sprague-Dawley rat at 5 mg/kg, iv; type: ADME, organism-based; set-up: dose 5 mg/kg, route iv; conditions: in vivo
[13] = biological target: Dual specificity calcium/calmodulin-dependent 3',5'-cyclic nucleotide phosphodiesterase 1B (Homo sapiens, UniProt Q01064); test: Inhibition of PDE1B (10 to 487 residues) (unknown origin) expressed in Escherichia coli BL21 using [3H]-cGMP as substrate measured for 15 mins by liquid scintillation counter method
Dual specificity calcium/calmodulin-dependent 3',5'-cyclic nucleotide phosphodiesterase 1B, sequence (Q01064 whole entry, the tested form may be a part): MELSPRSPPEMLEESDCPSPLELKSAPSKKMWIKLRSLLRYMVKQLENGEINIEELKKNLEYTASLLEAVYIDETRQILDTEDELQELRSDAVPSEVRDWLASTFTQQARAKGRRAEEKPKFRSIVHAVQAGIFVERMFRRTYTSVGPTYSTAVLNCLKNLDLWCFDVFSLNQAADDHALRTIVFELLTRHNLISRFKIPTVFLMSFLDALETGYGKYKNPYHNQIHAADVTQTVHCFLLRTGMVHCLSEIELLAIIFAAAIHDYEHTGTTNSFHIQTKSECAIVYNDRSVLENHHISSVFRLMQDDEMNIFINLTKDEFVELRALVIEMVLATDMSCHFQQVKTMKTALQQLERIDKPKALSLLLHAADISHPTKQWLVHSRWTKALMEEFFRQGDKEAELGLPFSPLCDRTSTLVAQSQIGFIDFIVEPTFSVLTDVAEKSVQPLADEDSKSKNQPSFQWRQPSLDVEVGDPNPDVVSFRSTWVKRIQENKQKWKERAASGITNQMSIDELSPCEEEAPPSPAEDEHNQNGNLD

Rattus norvegicus [14] = test: Antifibrotic activity in bleomycin-induced Sprague-Dawley rat pulmonary fibrosis model assessed as decrease in number of lung foci at 5 mg/kg, ip administered daily for 28 days by H&E staining based histopathological analysis; type: functional, organism-based; conditions: time 28.0 day
[15] = biological target: High affinity 3',5'-cyclic-AMP phosphodiesterase 7A (Homo sapiens, UniProt Q13946); test: Inhibition of PDE7A1 (130-482 residues) (unknown origin) expressed in Escherichia coli BL21 using [3H]-cAMP as substrate measured for 15 mins by liquid scintillation counter method
High affinity 3',5'-cyclic-AMP phosphodiesterase 7A, sequence (Q13946 whole entry, the tested form may be a part): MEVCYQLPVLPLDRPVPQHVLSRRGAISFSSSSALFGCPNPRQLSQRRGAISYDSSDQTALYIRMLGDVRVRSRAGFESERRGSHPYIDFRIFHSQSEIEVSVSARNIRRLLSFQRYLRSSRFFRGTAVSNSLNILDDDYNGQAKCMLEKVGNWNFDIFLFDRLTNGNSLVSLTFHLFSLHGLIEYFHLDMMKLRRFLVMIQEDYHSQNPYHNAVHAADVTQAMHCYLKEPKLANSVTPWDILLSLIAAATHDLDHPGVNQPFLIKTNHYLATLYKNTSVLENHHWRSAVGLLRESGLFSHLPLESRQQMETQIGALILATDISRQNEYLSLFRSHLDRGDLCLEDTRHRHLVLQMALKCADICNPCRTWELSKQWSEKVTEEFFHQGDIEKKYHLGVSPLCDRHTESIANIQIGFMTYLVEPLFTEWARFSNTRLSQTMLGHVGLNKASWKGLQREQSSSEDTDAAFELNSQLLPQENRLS

Rattus norvegicus [16] = test: Antifibrotic activity in bleomycin-induced Sprague-Dawley rat pulmonary fibrosis model assessed as decrease in relaxation time at 150 mg/kg, po administered daily for 28 days; type: functional, organism-based; conditions: time 28.0 day
HLF [17] = test: Antifibrotic activity in TGF-beta induced HLF cell assessed as suppression of alpha-SMA level incubated for 48 hrs by Western blot analysis; type: functional, cell-based; conditions: Homo sapiens, DDE = dose-dependent effect
[18] = biological target: cGMP-inhibited 3',5'-cyclic phosphodiesterase 3A (Homo sapiens, UniProt Q14432); test: Inhibition of PDE3A (679 to 1087 residues) (unknown origin) expressed in Escherichia coli BL21 using [3H]-cAMP as substrate measured for 15 mins by liquid scintillation counter method
cGMP-inhibited 3',5'-cyclic phosphodiesterase 3A, sequence (Q14432 whole entry, the tested form may be a part): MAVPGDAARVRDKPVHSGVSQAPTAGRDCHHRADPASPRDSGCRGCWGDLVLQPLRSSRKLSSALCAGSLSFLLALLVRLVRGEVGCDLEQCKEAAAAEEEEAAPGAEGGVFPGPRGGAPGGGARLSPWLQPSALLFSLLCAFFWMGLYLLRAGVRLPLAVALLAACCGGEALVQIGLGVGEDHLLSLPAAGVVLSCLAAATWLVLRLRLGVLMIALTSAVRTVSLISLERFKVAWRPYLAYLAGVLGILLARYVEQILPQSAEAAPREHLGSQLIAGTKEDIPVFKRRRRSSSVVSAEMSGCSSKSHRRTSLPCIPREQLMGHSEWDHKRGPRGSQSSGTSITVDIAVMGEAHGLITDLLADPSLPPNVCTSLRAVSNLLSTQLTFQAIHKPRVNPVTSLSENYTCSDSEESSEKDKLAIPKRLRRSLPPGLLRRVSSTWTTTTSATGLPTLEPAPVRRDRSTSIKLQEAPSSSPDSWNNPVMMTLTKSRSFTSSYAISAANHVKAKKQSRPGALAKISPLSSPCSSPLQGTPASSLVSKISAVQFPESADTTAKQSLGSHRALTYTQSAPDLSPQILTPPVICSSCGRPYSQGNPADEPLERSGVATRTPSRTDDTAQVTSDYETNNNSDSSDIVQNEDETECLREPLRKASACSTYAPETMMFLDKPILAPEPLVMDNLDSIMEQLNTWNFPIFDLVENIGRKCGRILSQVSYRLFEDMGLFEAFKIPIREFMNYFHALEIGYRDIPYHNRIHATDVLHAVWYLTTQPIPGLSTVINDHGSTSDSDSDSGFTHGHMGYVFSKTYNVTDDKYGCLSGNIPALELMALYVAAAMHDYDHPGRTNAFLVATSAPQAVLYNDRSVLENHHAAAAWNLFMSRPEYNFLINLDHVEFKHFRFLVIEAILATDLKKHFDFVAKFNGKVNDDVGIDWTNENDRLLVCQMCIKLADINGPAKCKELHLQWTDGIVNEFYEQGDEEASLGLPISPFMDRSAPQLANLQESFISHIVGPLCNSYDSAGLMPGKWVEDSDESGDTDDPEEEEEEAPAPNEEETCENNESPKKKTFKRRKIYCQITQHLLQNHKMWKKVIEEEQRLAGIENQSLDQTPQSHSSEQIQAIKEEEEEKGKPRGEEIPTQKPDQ

Rattus norvegicus [19] = test: Antifibrotic activity in bleomycin-induced Sprague-Dawley rat pulmonary fibrosis model assessed as decrease in relaxation time at 2.5 to 5 mg/kg, ip administered daily for 28 days; type: functional, organism-based; conditions: dose 2.5-5 mg/kg, time 28.0 day
Rattus norvegicus [20] = test: Antifibrotic activity in bleomycin-induced Sprague-Dawley rat pulmonary fibrosis model assessed as decrease in enhanced pause at 150 mg/kg, po administered daily for 28 days; type: functional, organism-based; conditions: time 28.0 day
Rattus norvegicus [21] = test: Antifibrotic activity in bleomycin-induced Sprague-Dawley rat pulmonary fibrosis model assessed as decrease in enhanced pause at 2.5 to 5 mg/kg, ip administered daily for 28 days; type: functional, organism-based; conditions: dose 2.5-5 mg/kg, time 28.0 day
Rattus norvegicus [22] = test: Antifibrotic activity in bleomycin-induced Sprague-Dawley rat lung fibrosis model assessed as suppression of TGF-beta1 level at 2.5 to 5 mg/kg, ip administered daily for 28 days by Western blot analysis; type: functional, organism-based; conditions: dose 2.5-5 mg/kg, time 28.0 day
[23] = Volume of distribution at steady state in Sprague-Dawley rat at 5 mg/kg, iv; type: ADME, organism-based; conditions: in vivo, read-out: Vdss
[24] = Cmax in Sprague-Dawley rat at 5 mg/kg, iv; type: ADME, organism-based; set-up: dose 5 mg/kg, route iv; conditions: in vivo
HLF [25] = test: Antifibrotic activity in TGF-beta induced HLF cell assessed as decrease in FN level at 10 to 20 uM incubated for 48 hrs by DAPI staining based immunofluorescence microscopic analysis; type: functional; conditions: Homo sapiens, dose 10-20 µM
Rattus norvegicus [26] = test: Antifibrotic activity in bleomycin-induced Sprague-Dawley rat pulmonary fibrosis model assessed as smaller lung foci at 5 mg/kg, ip administered daily for 28 days by H&E staining based histopathological analysis; type: functional, organism-based; conditions: time 28.0 day
HLF [27] = test: Antifibrotic activity in TGF-beta induced HLF cell assessed as suppression of FN level incubated for 48 hrs by Western blot analysis; type: functional, cell-based; conditions: Homo sapiens, DDE = dose-dependent effect
HLF [28] = test: Antifibrotic activity in TGF-beta induced HLF cell assessed as decrease in alpha-SMA level at 10 to 20 uM incubated for 48 hrs by DAPI staining based immunofluorescence microscopic analysis; type: functional; conditions: Homo sapiens, dose 10-20 µM
Cytochrome P450 2C19 = Cytochrome P450 2C19 (Homo sapiens, UniProt P33261); test: Inhibition of CYP2C19 in human liver microsomes at 25 uM in the presence of NADPH; type: ADME, Microsome
Cytochrome P450 2C19, sequence (P33261 whole entry): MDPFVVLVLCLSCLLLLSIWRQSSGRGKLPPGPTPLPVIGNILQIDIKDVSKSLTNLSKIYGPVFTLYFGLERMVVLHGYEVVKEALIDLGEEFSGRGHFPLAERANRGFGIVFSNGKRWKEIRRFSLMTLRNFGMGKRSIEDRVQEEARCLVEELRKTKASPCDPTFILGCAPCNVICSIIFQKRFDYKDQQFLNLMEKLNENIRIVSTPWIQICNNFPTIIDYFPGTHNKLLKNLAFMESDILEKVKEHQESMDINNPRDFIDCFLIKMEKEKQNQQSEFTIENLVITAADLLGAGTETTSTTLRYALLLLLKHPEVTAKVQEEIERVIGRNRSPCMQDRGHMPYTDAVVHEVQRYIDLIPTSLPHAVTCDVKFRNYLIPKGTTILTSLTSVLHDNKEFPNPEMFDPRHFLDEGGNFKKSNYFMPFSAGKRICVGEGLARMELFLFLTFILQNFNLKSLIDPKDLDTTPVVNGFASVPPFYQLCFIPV

[29] = Clearance in Sprague-Dawley rat at 5 mg/kg, iv; type: ADME, organism-based; conditions: in vivo
Rattus norvegicus [30] = test: Antifibrotic activity in bleomycin-induced Sprague-Dawley rat lung fibrosis model assessed as decrease in lung fibrosis at 2.5 to 5 mg/kg, ip administered daily for 28 days by Masson's trichrome staining based analysis; type: functional, organism-based; conditions: dose 2.5-5 mg/kg, time 28.0 day
Rattus norvegicus [31] = test: Antifibrotic activity in bleomycin-induced Sprague-Dawley rat pulmonary fibrosis model assessed as increase in respiratory rate at 150 mg/kg, po administered daily for 28 days; type: functional, organism-based; conditions: time 28.0 day
[32] = biological target: cAMP and cAMP-inhibited cGMP 3',5'-cyclic phosphodiesterase 10A (Homo sapiens, UniProt Q9Y233); test: Inhibition of PDE10A (449 to 770 residues) (unknown origin) expressed in Escherichia coli BL21 using [3H]-cAMP as substrate measured for 15 mins by liquid scintillation counter method
cAMP and cAMP-inhibited cGMP 3',5'-cyclic phosphodiesterase 10A, sequence (Q9Y233 whole entry, the tested form may be a part): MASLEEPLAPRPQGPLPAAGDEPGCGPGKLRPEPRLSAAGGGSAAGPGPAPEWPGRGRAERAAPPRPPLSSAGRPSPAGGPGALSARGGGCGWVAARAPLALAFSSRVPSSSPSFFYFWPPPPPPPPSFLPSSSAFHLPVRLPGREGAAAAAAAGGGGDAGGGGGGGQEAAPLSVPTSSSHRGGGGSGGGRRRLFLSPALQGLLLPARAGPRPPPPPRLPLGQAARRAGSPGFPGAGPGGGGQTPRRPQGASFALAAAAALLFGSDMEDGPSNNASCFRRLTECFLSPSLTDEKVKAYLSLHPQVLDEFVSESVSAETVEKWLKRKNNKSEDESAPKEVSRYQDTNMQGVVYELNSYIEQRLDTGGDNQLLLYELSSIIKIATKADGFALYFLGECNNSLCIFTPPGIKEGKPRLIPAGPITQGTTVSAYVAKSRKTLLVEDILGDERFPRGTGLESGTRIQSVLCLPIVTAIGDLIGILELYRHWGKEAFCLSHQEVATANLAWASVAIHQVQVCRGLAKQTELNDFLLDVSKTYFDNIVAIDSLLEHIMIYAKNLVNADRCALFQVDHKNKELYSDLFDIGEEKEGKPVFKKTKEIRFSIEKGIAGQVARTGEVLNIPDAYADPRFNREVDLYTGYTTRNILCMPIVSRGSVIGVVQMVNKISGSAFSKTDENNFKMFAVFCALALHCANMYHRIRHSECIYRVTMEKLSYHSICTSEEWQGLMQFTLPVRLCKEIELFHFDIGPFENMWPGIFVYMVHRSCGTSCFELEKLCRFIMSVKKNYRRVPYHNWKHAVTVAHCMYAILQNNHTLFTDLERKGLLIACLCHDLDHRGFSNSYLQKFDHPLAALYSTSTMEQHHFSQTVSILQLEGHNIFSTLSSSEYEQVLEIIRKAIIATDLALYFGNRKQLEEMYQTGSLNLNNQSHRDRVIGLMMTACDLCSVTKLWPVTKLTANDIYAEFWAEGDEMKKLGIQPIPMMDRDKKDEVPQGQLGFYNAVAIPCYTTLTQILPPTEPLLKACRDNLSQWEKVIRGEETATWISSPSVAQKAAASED

## CC1=C(C(=O)O[C@H](C)c2ccccc2)C(c2ccc3c(cnn3C)c2)C(C(=O)O[C@H](C)c2ccccc2)=C(C)N1
Rattus norvegicus [1]
  Activity: Active
Rattus norvegicus [2]
  Activity: Active
Rattus norvegicus [3]
  Activity: Active
HLF [4]
  Activity: Active
HLF [5]
  Activity: Active
HLF [6]
  Activity: Dde
Rattus norvegicus [7]
  Activity: Active
[8]
  IC50: > 10 µM
Rattus norvegicus [9]
  Activity: Active
[10]
  IC50: 948 nM
[11]
  IC50: 145 nM
[12]
  AUC(0-t): 4560 ng·h/mL
[13]
  IC50: 354 nM
Rattus norvegicus [14]
  Activity: Active
[15]
  IC50: 1400 nM
Rattus norvegicus [16]
  Activity: Active
HLF [17]
  Activity: Dde
[18]
  IC50: > 10 µM
Rattus norvegicus [19]
  Activity: Active
Rattus norvegicus [20]
  Activity: Active
Rattus norvegicus [21]
  Activity: Active
Rattus norvegicus [22]
  Activity: Active
[23]
  Vd: 3.81 L/kg
[24]
  Cmax: 2830 ng/mL
HLF [25]
  Activity: Active
Rattus norvegicus [26]
  Activity: Active
HLF [27]
  Activity: Dde
HLF [28]
  Activity: Active
Cytochrome P450 2C19
  IC50: 3.9 µM
[29]
  clearance: 18.4 mL/min/kg
Rattus norvegicus [30]
  Activity: Active
Rattus norvegicus [31]
  Activity: Active
[32]
  IC50: 1310 nM
